Measurements: PubChem BioAssay AID248 (DTP/NCI, 2004)
Inconclusive results and toxic doses are left out. No stated cut-off is given here; in the data, active means T/C of 150% or more; inactive means T/C below 125%.

Test system: L1210 leukemia ip in BDF1 mice, survival T/C
Test: NCI In Vivo Anticancer Drug Screen. Data for tumor model L1210 Leukemia (intraperitoneal) in B6D2F1 (BDF1) mice
Conditions: endpoint: mean survival time, higher = longer survival
In short: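 Antitumor effect is assessed in tumor-bearing animals. Survival in the compound arm is compared with a vehicle-dosed control arm and expressed as their quotient.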

[1] = dose: 100.0 mg/kg/injection, schedule: Q01DX001 (ip), vehicle: saline
[2] = dose: 200.0 mg/kg/injection, schedule: Q01DX001 (ip), vehicle: saline
[3] = dose: 400.0 mg/kg/injection, schedule: Q01DX001 (ip), vehicle: saline
[4] = dose: 100.0 mg/kg/injection, schedule: Q04DX003 (ip), vehicle: Klucel (hydroxypropylcellulose) (HPC)
[5] = dose: 200.0 mg/kg/injection, schedule: Q04DX003 (ip), vehicle: Klucel (hydroxypropylcellulose) (HPC)
[6] = dose: 400.0 mg/kg/injection, schedule: Q04DX003 (ip), vehicle: Klucel (hydroxypropylcellulose) (HPC)
[7] = dose: 100.0 mg/kg/injection, schedule: Q04DX002 (ip), vehicle: Klucel (hydroxypropylcellulose) (HPC)
[8] = dose: 200.0 mg/kg/injection, schedule: Q04DX002 (ip), vehicle: Klucel (hydroxypropylcellulose) (HPC)
[9] = dose: 400.0 mg/kg/injection, schedule: Q04DX002 (ip), vehicle: Klucel (hydroxypropylcellulose) (HPC)
[10] = dose: 100.0 mg/kg/injection, schedule: Q01DX009 (ip), vehicle: Klucel (hydroxypropylcellulose) (HPC)
[11] = dose: 200.0 mg/kg/injection, schedule: Q01DX009 (ip), vehicle: Klucel (hydroxypropylcellulose) (HPC)
[12] = dose: 400.0 mg/kg/injection, schedule: Q01DX009 (ip), vehicle: Klucel (hydroxypropylcellulose) (HPC)
[13] = dose: 100.0 mg/kg/injection, schedule: Q01DX009 (ip), vehicle: saline
[14] = dose: 200.0 mg/kg/injection, schedule: Q01DX009 (ip), vehicle: saline

Measured: T/C

Cc1ccc(-c2nc(C#N)c(C#N)nc2-c2ccc(C)cc2)cc1
inactive: [1] 98 % of control | [2] 101 % of control | [3] 101 % of control

S=C(c1ccccn1)N1CCOCC1
inactive: [4] 90 % of control | [5] 102 % of control | [6] 95 % of control

O=C1C(O)=C(c2ccc(Br)cc2)C(=O)C(O)=C1c1ccc(Br)cc1
inactive: dose: 75.0 mg/kg/injection, schedule: Q01DX001 (ip), vehicle: other 103 % of control

C=C/C=N/Nc1ccc([N+](=O)[O-])cc1
inactive: [7] 98 % of control | [8] 92 % of control | [9] 95 % of control

O=[N+]([O-])c1ccc(C=Nc2cccc3ncccc23)s1
inactive: [4] 95 % of control | [5] 93 % of control

CC(C)C(=O)CC(=O)C(C)C.CC(C)C(=O)CC(=O)C(C)C.[Cu]
inactive: dose: 12.0 mg/kg/injection, schedule: Q01DX001 (ip), vehicle: saline 93 % of control | dose: 12.0 mg/kg/injection, schedule: Q04DX003 (ip), vehicle: saline 90 % of control | dose: 25.0 mg/kg/injection, schedule: Q01DX001 (ip), vehicle: saline 98 % of control | dose: 25.0 mg/kg/injection, schedule: Q04DX003 (ip), vehicle: saline 98 % of control | dose: 50.0 mg/kg/injection, schedule: Q01DX001 (ip), vehicle: saline 98 % of control | dose: 50.0 mg/kg/injection, schedule: Q04DX003 (ip), vehicle: saline 96 % of control

CCCCCc1c2c(c(CCCCC)c3c1-c1cccc4cccc-3c14)-c1ccc(C)cc1C2
inactive: dose: 100.0 mg/kg/injection, schedule: Q01DX001 (ip), vehicle: saline with Tween-80 92 % of control | dose: 400.0 mg/kg/injection, schedule: Q01DX001 (ip), vehicle: saline with Tween-80 87 % of control

c1ccc2cc(C3OCC4(CCCCC4)CO3)ccc2c1
inactive: dose: 100.0 mg/kg/injection, schedule: Q01DX001 (ip), vehicle: Klucel (hydroxypropylcellulose) (HPC) 96 % of control | dose: 200.0 mg/kg/injection, schedule: Q01DX001 (ip), vehicle: Klucel (hydroxypropylcellulose) (HPC) 100 % of control | dose: 400.0 mg/kg/injection, schedule: Q01DX001 (ip), vehicle: Klucel (hydroxypropylcellulose) (HPC) 100 % of control

CC1(C)CCc2ccccc2C1
inactive: dose: 50.0 mg/kg/injection, schedule: Q01DX009 (ip), vehicle: saline with Tween-80 104 % of control | dose: 100.0 mg/kg/injection, schedule: Q01DX009 (ip), vehicle: saline with Tween-80 96 % of control

CCOC(=O)CC(=O)c1ccc(OCCOc2ccc(C(C)(C)CC(C)(C)C)cc2)cc1
inactive: [10] 95 % of control | [4] 89 % of control | [11] 97 % of control | [5] 96 % of control | [12] 87 % of control | [6] 86 % of control

COc1ccc(OCCCO)cc1
inactive: [7] 108 % of control | [8] 105 % of control | [9] 97 % of control

O=C(O)C(C(=O)O)C(=O)O
inactive: dose: 75.0 mg/kg/injection, schedule: Q01DX001 (ip), vehicle: saline 94 % of control | dose: 150.0 mg/kg/injection, schedule: Q01DX001 (ip), vehicle: saline 94 % of control

O=C(OCC1CC=CC1)C1CC=CC1
inactive: dose: 100.0 mg/kg/injection, schedule: Q04DX003 (ip), vehicle: saline sonified 102 % of control | dose: 200.0 mg/kg/injection, schedule: Q04DX003 (ip), vehicle: saline sonified 96 % of control

C=C1C(C(=O)OCC)C1C(=O)OCC (stereo unspecified)
inactive: dose: 50.0 mg/kg/injection, schedule: Q04DX002 (ip), vehicle: saline with Tween-80 98 % of control | dose: 100.0 mg/kg/injection, schedule: Q04DX002 (ip), vehicle: saline with Tween-80 103 % of control | dose: 200.0 mg/kg/injection, schedule: Q04DX002 (ip), vehicle: saline with Tween-80 106 % of control | dose: 400.0 mg/kg/injection, schedule: Q04DX002 (ip), vehicle: saline with Tween-80 98 % of control

O=C(Nc1cc([N+](=O)[O-])ccc1O)c1ccccc1Cl
inactive: [13] 101 % of control | [14] 97 % of control | dose: 400.0 mg/kg/injection, schedule: Q01DX009 (ip), vehicle: saline 98 % of control

O=C(CCBr)N1CCCN(C(=O)CCBr)CC1
inactive: dose: 106.0 mg/kg/injection, schedule: Q01DX Z (ip), vehicle: carboxymethylcellulose (CMC) 114 % of control | dose: 160.0 mg/kg/injection, schedule: Q01DX Z (ip), vehicle: carboxymethylcellulose (CMC) 119 % of control

CC12CCC(C(=O)C1=O)C2(C)C (stereo unspecified)
inactive: dose: 50.0 mg/kg/injection, schedule: Q01DX001 (ip), vehicle: carboxymethylcellulose (CMC) 121 % of control | dose: 100.0 mg/kg/injection, schedule: Q01DX001 (ip), vehicle: carboxymethylcellulose (CMC) 103 % of control | [7] 99 % of control | dose: 200.0 mg/kg/injection, schedule: Q01DX001 (ip), vehicle: carboxymethylcellulose (CMC) 109 % of control | [8] 96 % of control | dose: 400.0 mg/kg/injection, schedule: Q01DX001 (ip), vehicle: carboxymethylcellulose (CMC) 113 % of control | [9] 89 % of control

C#CCOC(=O)Nc1ccccc1
inactive: dose: 50.0 mg/kg/injection, schedule: Q01DX009 (ip), vehicle: Klucel (hydroxypropylcellulose) (HPC) 100 % of control | [10] 100 % of control | [11] 107 % of control

CCOC(=O)Nc1ccc(Cl)cc1Cl
inactive: dose: 100.0 mg/kg/injection, schedule: Q04DX003 (ip), vehicle: saline with Tween-80 97 % of control | dose: 200.0 mg/kg/injection, schedule: Q04DX003 (ip), vehicle: saline with Tween-80 105 % of control | dose: 400.0 mg/kg/injection, schedule: Q04DX003 (ip), vehicle: saline with Tween-80 87 % of control

C=C1C(=O)OC2/C=C(/C)C(OC(C)=O)CC(O)/C(C)=C\C(OC(=O)/C(C)=C\C)C12 (stereo unspecified)
inactive: dose: 40.0 mg/kg/injection, schedule: Q01DX009 (ip), vehicle: carboxymethylcellulose (CMC) 101 % of control | dose: 60.0 mg/kg/injection, schedule: Q01DX009 (ip), vehicle: carboxymethylcellulose (CMC) 104 % of control | dose: 80.0 mg/kg/injection, schedule: Q01DX009 (ip), vehicle: carboxymethylcellulose (CMC) 104 % of control | dose: 100.0 mg/kg/injection, schedule: Q01DX009 (ip), vehicle: carboxymethylcellulose (CMC) 98 % of control

O=c1/c(=C\c2ccccc2)sc2n1CCN=2
inactive: [1] 89 % of control | [2] 92 % of control | [3] 101 % of control

CCCCCCCCCCCCOC(=O)C[n+]1cccc(C(=O)NC)c1
inactive: dose: 12.5 mg/kg/injection, schedule: Q04DX003 (ip), vehicle: saline with Tween-80 101 % of control | dose: 25.0 mg/kg/injection, schedule: Q04DX003 (ip), vehicle: saline with Tween-80 97 % of control | dose: 50.0 mg/kg/injection, schedule: Q04DX003 (ip), vehicle: saline with Tween-80 95 % of control

CC(C)=NOS(=O)(=O)c1ccc(C)cc1
inactive: dose: 75.0 mg/kg/injection, schedule: Q01DX009 (ip), vehicle: saline 103 % of control | dose: 75.0 mg/kg/injection, schedule: Q04DX003 (ip), vehicle: saline 88 % of control | dose: 150.0 mg/kg/injection, schedule: Q01DX009 (ip), vehicle: saline 98 % of control | dose: 150.0 mg/kg/injection, schedule: Q04DX003 (ip), vehicle: saline 92 % of control | dose: 300.0 mg/kg/injection, schedule: Q01DX009 (ip), vehicle: saline 101 % of control | dose: 300.0 mg/kg/injection, schedule: Q04DX003 (ip), vehicle: saline 88 % of control

CC1(C)CC(=O)CCS1
inactive: [10] 102 % of control | [4] 105 % of control | [11] 96 % of control | [5] 98 % of control | [12] 104 % of control | [6] 100 % of control

C=CC(C)(O)CCC1C(=C)CCC2C(C)(C)CCCC12C (stereo unspecified)
inactive: [10] 100 % of control | [11] 100 % of control | [12] 95 % of control

C=C[CH2][Sn]([Br])([Br])[Br]
inactive: dose: 50.0 mg/kg/injection, schedule: Q01DX009 (ip), vehicle: saline 115 % of control | [13] 95 % of control | [14] 86 % of control

COc1ccc(OC)c(NC(=O)Nc2ccc(N(C)C)cc2)c1
inactive: [4] 93 % of control | [5] 97 % of control | [6] 95 % of control
